Tests used:
[1] = SPANC reaction kinetics with BCN—OH by UV/Vis absorption spectroscopy; format: physicochemical; conditions: for Second-order rate constants (k2): reaction with BCN—OH in MeOH at 298 K
Description: The reactivity of the iridium(III) and ruthenium(II) pyridyl complexes toward a strained alkyne derivative BCN—OH in MeOH at 298 K was studied. The second-order rate constants (k2) of the strain-promoted alkyne-nitrone cycloaddition (SPANC) reaction of complexes 1a-5b are shown in Tables 3 and 4, respectively. The k2 values of the iridium(III) complexes 1a, 2a and 3a and the ruthenium(II) complexes 1b, 2b, 3b, 4b, and 5b were determined to be 0.116-0.238 and 0.078-3.06 M^−1 s^−1, respectively, which are about 1.95-76.5 times that of the free ligand bpy-nitrone-Me (k2=0.040 M^−1 s^−1). This is attributed to the electron-withdrawing effects of the positively-charged metal centers. […] The accelerated reaction kinetics is assumed to originate from the presence of the more electron-withdrawing phenyl ring at the N-position of the nitrone moiety. Thus, the accelerated reaction kinetics render complexes 1a-5b highly advantageous bioorthogonal probes for biomolecules modified with a strained alkyne moiety.
More specifically, the SPANC reaction kinetics of complexes 1a 5b was studied by UV/Ms absorption spectroscopy. For the ligand bpy-nitrone-Me and the iridium(III) complexes 1a-3a, the k2 values were measured under pseudo first order conditions with a 25- to 100-fold excess of BCN—OH in MeOH at 298 K. The reaction process was followed by monitoring the exponential decay of the absorbance at 306-342 nm upon addition of BCN—OH. The final concentrations of the nitrone compounds were 10 μM and those of BCN—OH ranged from 0.25 to 1.0 mM. For the ruthenium(II) complexes 1b-5b, the k2 values were determined under pseudo first order conditions with a 50- to 200-fold excess of BCN—OH in MeOH at 298 K. The reaction process was monitored by following the exponential decay of the absorbance at 329 nm. The final concentrations of the complexes were 10 μM and those of BCN—OH ranged from 0.5 to 2.0 mM. The data were fitted to a single-exponential equation to give the observed rate constants (kobs), which were plotted against the concentrations of BCN—OH to obtain the k2 from the slope of the plots.

HeLa cells [2] = format: cell-based; conditions: complex 40 μM; for Percentage of survival: 37° C., 6 h; for Cell viability with BCN-C10 pretreatment: BCN-C10 pretreatment (200 μM, 1 h)
Text: The results particularly highlight the potential of the luminogenic transition metal-based polypyridyl complexes of the present invention for bioorthogonal labeling. […] Importantly, although the cellular uptake of complex 2b was substantially higher, it was much less cytotoxic than complex 4b toward the pretreated cells. […] The results also highlight the potential therapeutic use of intracellular bioorthogonal coupling reactions in activating the cytotoxicity of metallo drugs.
For determining the cytotoxicity of complexes 1 b 5b, HeLa cells were seeded in a 96-well flat-bottomed microplate (about 10,000 cells well^−1) in growth medium (100 μL) and incubated at 37° C. under a 5% CO2 atmosphere for 24 h. The cells were then incubated in either blank medium or growth medium/DMSO (99:1, v/v) (100 μL) containing BCN-C10 (200 μM) in the dark at 37° C. under a 5% CO2 atmosphere for 1 h. The medium was then removed, the cell layer was washed with PBS, and further incubated in growth medium/DMSO (99:1, v/v) (100 μL) containing the ruthenium(II) complexes (40 μM) in the dark at 37° C. under a 5% CO2 atmosphere for 6, 12, or 24 h. Wells containing untreated cells were used as blank control. The microplate was incubated at 37° C. under a 5% CO2 atmosphere for another 4 h. The growth medium was then removed, and DMSO (200 μL) was added to each well. The microplate was further incubated for 15 min. The absorbance of the solutions at 570 nm was measured with a SPECTRAmax 340 microplate reader.

HeLa cells [3] = test: LSCM imaging of bioorthogonal labeling of BCN-C10 in HeLa cells; format: cell-based; conditions: for Subcellular structure stained / Staining pattern over time: BCN-C10-pretreated HeLa cells; for Intracellular emission with BCN-C10 pretreatment: HeLa cells, BCN-C10 200 μM 1 h, λex=488 nm; for Intracellular emission with BCN-C10 pretreatment / Staining pattern over time: complex 40 μM
Text: (“1 b”, “2b”, “3b”, “4b”, and “5b” indicate the complexes of the present invention; “—BCN-C10” means BCN-C10-untreated HeLa cells; “+BCN-C10” means BCN-C10-pretreated HeLa cells).
(“2b” and “5b” indicate the complexes of the present invention; “—BCN-C10” means BCN-C10-untreated HeLa cells; “+BCN-C10” means BCN-C10-pretreated HeLa cells).
The bioorthogonal labeling properties of complexes 1a-5b were investigated using CHO-K1 or HeLa cells with or without pretreatment of an exogenous molecule BCN-010, i.e., a BCN-modified decane molecule. The intracellular distribution of BCN-C10 was then imaged using laser scanning confocal microscopy (LSCM).
In the study of the ruthenium(II) nitrone complexes, live HeLa cells were treated with BCN-C10 (200 μM) for 1 h, thoroughly washed with PBS, then incubated with complexes 1b-5b (40 μM) for 12 h, and finally imaged by LSCM. More specifically, HeLa cells were incubated in growth medium/DMSO (99:1, v/v) containing BCN-C10 (200 μM) in the dark at 37° C. under a 5% CO2 atmosphere for 1 h. After treatment, the medium was removed, the cells were washed thoroughly with PBS (1 mL×3), and then incubated in growth medium/DMSO (99:1, v/v) containing the ruthenium(II) complex (40 μM) in the dark at 37° C. under a 5% CO2 atmosphere. After incubation for 3, 6, 12, or 24 h, the culture medium was removed and the cell was were washed with PBS (1 mL×3). The coverslip was mounted onto a sterilized glass slide and then imaging was performed using a Leica TCS SPE confocal microscope with an oil immersion 63× objective len and an excitation wavelength at 488 nm. […] Additionally, BCN-C10-pretreated cells were incubated with complexes 2b and 5b for different time periods (3, 6, 12, and 24 h) (FIG. 6). […] The regioselective staining is assumed to be closely related to the subcellular distribution of BCN-C10, and the lipophilicity and reactivity of the complexes.

Row | Compound | Second-order rate constants (k2) [1] | Percentage of survival (HeLa cells [2]) | Subcellular structure stained (HeLa cells [3]) | Intracellular emission with BCN-C10 pretreatment (HeLa cells [3]; 12 h) | Cell viability with BCN-C10 pretreatment (HeLa cells [2]) | Staining pattern over time (HeLa cells [3]; 6 h) | Staining pattern over time (HeLa cells [3]; 12 h) | Staining pattern over time (HeLa cells [3]; 24 h) | k2 relative to those of the N-methyl nitrone complexes 1b, 2b, 3b and 4b ([1]; BCN—OH in MeOH at 298 K)
1 | Cc1ccnc(-c2cc(/C=[N+](/C)[O-])ccn2)c1.F[P-](F)(F)(F)(F)F.F[P-](F)(F)(F)(F)F.[Ru+2].c1ccc(-c2ccccn2)nc1.c1ccc(-c2ccccn2)nc1 [Complex 1b] | 0.084 ± 0.005 M⁻¹ s⁻¹ | 91.37 ± 5.73% | punctate cell surface staining | weak but enhanced emission |  |  |  |  | 
2 | CCCCNC(=O)c1ccnc(-c2cc(C(=O)NCCCC)ccn2)c1.CCCCNC(=O)c1ccnc(-c2cc(C(=O)NCCCC)ccn2)c1.Cc1ccnc(-c2cc(/C=[N+](/C)[O-])ccn2)c1.F[P-](F)(F)(F)(F)F.F[P-](F)(F)(F)(F)F.[Ru+2] [Complex 2b] | 0.086 ± 0.005 M⁻¹ s⁻¹ | 94.83 ± 16.20% | cell membrane staining | intense subcellular staining | maintained good biocompatibility | selectively lighted up the cell surface | intense cell membrane staining plus some sharp vesicles in the cytoplasmic regions adjacent to cell membrane | intense granular staining in the cytoplasm | 
3 | Cc1ccnc(-c2cc(/C=[N+](\[O-])c3ccccc3)ccn2)c1.F[P-](F)(F)(F)(F)F.F[P-](F)(F)(F)(F)F.[Ru+2].c1ccc(-c2ccccn2)nc1.c1ccc(-c2ccccn2)nc1 [Complex 5b] |  | 92.78 ± 8.54% | cell membrane staining | intense subcellular staining | maintained good biocompatibility | selectively lighted up the cell surface | intense cell membrane staining plus some sharp vesicles in the cytoplasmic regions adjacent to cell membrane | intense granular staining in the cytoplasm | at least 36 fold

— patent US10759994B2, “Luminogenic transition metal-based pyridyl complex and its use” (City University of Hong Kong, priority 2016, dated 2020)
